Experimental data from US11896678B2, “Compositions and methods for treatment of peroxisome proliferator-activated receptor gamma (PPARG) activated cancer” (THE BROAD INSTITUTE, INC., priority 2017, dated 2024).

Key:
[1] = biological target: T1, PPARG ligand-binding domain - TRAP220/MED1 coactivator peptide (Homo sapiens, UniProt P37231); assay: TR-FRET coactivator assay, TRAP220/MED1 peptide; type: biochemical
T1 construct: purchased ThermoFisher Scientific
T1 sequence (P37231 238-503 limits assumed): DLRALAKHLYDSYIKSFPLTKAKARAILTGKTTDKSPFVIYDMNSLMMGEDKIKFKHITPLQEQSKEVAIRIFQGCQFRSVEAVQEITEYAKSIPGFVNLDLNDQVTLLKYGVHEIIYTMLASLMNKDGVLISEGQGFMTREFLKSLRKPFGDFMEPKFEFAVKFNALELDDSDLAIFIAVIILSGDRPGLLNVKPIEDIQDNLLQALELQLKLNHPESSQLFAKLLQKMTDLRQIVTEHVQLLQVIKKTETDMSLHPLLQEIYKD

PPARG = biological target: T2, PPARG (Homo sapiens, UniProt P37231); assay: RT112/84 FABP4-NLucP reporter gene assay, unstimulated; type: cell-based
T2 construct: endogenous in cells; host or cells: RT112/84 bladder cancer cells (FABP4-NLucP knock-in clone)
T2 sequence (P37231 1-477 isoform P37231-2): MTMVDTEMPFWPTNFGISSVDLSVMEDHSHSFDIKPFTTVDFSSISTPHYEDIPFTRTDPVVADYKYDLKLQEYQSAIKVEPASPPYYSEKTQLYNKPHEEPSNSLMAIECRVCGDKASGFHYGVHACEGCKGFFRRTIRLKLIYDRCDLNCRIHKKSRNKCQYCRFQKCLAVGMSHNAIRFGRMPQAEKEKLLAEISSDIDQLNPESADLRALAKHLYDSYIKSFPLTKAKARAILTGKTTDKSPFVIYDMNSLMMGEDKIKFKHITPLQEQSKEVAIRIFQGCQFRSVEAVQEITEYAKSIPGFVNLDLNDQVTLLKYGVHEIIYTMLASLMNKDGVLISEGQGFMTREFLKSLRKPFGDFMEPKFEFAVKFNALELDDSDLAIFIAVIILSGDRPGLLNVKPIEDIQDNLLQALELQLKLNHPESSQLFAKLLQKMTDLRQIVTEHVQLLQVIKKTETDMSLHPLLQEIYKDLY
Source text: Next, a PPARG reporter cell line was engineered to enable higher throughput assays to evaluate PPARG transactivation. Briefly, a destabilized NanoLuc luciferase reporter gene was inserted into the 3′-UTR of the FABP4 gene in the RT112/84 bladder cancer cell line using CRISPR/Cas9 mediated homology-directed repair (FIG. 4A).
RT112-FABP4-NLucP Reporter Gene Assay: Reporter cell line was generated by engineering NanoLuc gene into the 3′ UTR of FABP4 in RT112/84 cells using CRISPR/Cas9 guided genome engineering. Single cell clones were generated and the clone with the widest dynamic range selected for use. Assays were performed by seeding 384-well plates with ˜10,000 cells per well in MEMalpha containing 10% FBS and dosing compounds at indicated concentration using HP D300 digital dispenser (HP/Tecan). 18-24 hours after dosing with compound, cells were assayed using NanoGlo Luciferase Assay Reagent (Promega Madison, WI) and plates were read using EnVision Multilabel Reader (PerkinElmer Waltham, MA).

[2] = biological target: T3, PPARG ligand-binding domain (Homo sapiens, UniProt P37231); assay: TR-FRET PPARG competition binding assay; details: maximal concentration tested 10 uM
T3 sequence (P37231 238-503 limits assumed): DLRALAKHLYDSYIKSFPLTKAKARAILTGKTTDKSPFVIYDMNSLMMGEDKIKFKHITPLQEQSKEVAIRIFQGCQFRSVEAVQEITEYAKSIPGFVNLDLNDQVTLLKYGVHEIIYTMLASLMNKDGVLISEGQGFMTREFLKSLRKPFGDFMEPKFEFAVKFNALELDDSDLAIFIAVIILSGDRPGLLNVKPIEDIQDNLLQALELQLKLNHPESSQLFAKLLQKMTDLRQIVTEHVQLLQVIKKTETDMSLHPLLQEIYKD
Procedure: To evaluate binding affinity, a PPARG competition binding assay that measures displacement of a fluorescent PPARG ligand from the PPARG ligand-binding domain was used.
Biochemical Assays: The LanthaScreen TR-FRET PPAR gamma Competitive Binding Assay and LanthaScreen TR-FRET PPAR gamma Coactivator Assay were obtained from ThermoFisher Scientific. Assays were performed according to the manufacturer's protocol. In order to assay inverse-agonism, the Coactivator assay was modified by the use of fluorescently labeled co-repressor peptides (NCoR1 ID2 peptide, SMRT ID2 peptide) to convert from agonist mode (coactivator recruitment) into inverse-agonist mode (corepressor recruitment).

[3] = test system: PPARG-activated pancreatic and colorectal cancer cell lines; assay: Kinetic proliferation assay in pancreatic and colorectal cancer cell lines; type: cell-based; details: 500 nM
Source text: To enable cell-counting, cell lines were transduced with a lentiviral vector encoding nuclear-targeted GFP (TagGFP2-H2B), and stable pools generated following selection for puromycin-resistance. Cell lines were maintained for at least 7 days following selection prior to expansion and seeding into 96-well plates for further analysis. For kinetic proliferation assays, 96-well plates were imaged in phase-contrast and green fluorescence mode every two hours using IncuCyte Zoom (Essen BioScience, Ann Arbor MI). Using IncuCyte software, the number of fluorescent nuclei were counted to monitor quantitative changes in cell number over time. Media and compounds were replaced approximately every 3-4 days.
DMSO treatment was also included as a vehicle control.

[4] = test system: PPARG target gene expression in UM-UC-9 cells; assay: RNA sequencing of UM-UC-9 cells after 7 days dosing; type: cell-based, human; details: 500 nmol/L
Procedure: Next, the effects of long-term dosing on the transcriptional profile of the PPARG-amplified cell line, UMUC-9, were evaluated. Briefly, UM-UC-9 cells were treated for 7 days with various PPARG modulators dosed at 500 nmol/L and gene expression was analyzed using RNA sequencing. […] Genes that were more abundantly expressed upon treatment with inverse-agonists included ALPP, SPINK4, and ALDH1A3 (FIG. 5). […] In summary, the in vitro pharmacological properties of known PPARG modulators have been characterized and two distinct chemotypes with bona-fide inverse-agonist activity in PPARG-activated bladder cancer cells were identified.
RNAseq analysis: RNA was isolated using RNEasy (Qiagen) and an RNAseq library was prepared using NEBNext Ultra Directional RNA Library Prep Kit for Illumina and NEBNext Multiplex Oligos for Illumina (New England BioLabs). RNAseq sequencing was performed using an Illumina MiSeq instrument according to the manufacturers protocol. Sequence data was analyzed using Firehose (Broad Institute, Cambridge MA) to map transcripts and calculate RPKM (SW780 cDNA expression) or TPM (UM-UC-9).
For UM-UC-9 RNAseq experiment, the resulting reads were used to calculate transcript abundance in units of TPM (transcripts per million) (18), which were then adjusted using TMM normalization (19) for comparison. […]

UM-UC-9 cells = assay: Direct cell counting dose-response proliferation assay; type: cell-based, human
Procedure: To determine whether PPARG modulators affect the proliferation and/or viability of PPARG-activated bladder cancer cell lines, a direct cell counting-based assay was performed. This assay likely avoids potential artifacts associated with the use of an ATP content-based assay, given that PPAR modulators are known to regulate cellular metabolic activity. […] These IC50 values align well with the calculated IC50s from both the cell-based reporter gene assay (FIG. 8A) and the biochemical corepressor assay (FIG. 8D).
(§1) Proliferation Assays: To enable cell-counting experiments, cell lines were transduced with a lentiviral vector encoding nuclear-targeted GFP, TagGFP2-H2B (Evrogen), and stable pools generated following selection for puromycin resistance. Cell lines were maintained for at least 7 days following selection prior to expansion and seeding into 96- or 384-well plates for further analysis. For kinetic proliferation assays, 96-well plates (n 1% 4 per condition) were imaged and counted every two hours using IncuCyte Zoom (Essen BioScience). Media and compounds were replaced approximately every 3-4 days. For endpoint assays to measure dose-response, cells were plated in 384-well plates, dosed with compound, and upon reaching approximately 70% to 90% confluence in control wells, cells were either counted using fluorescence imaging (Incu-Cyte Zoom) or incubated with CyQuant (Thermo Fisher) at the indicated time and plates were read with a fluorescent plate reader.

[5] = test system: PPARG-activated bladder cancer cell lines; assay: Proliferation assays in PPARG-activated bladder cancer cell lines; type: cell-based, human; details: 100 nM-500 nM
Procedure: A panel of bladder cancer cell lines with PPARG modulators in colony formation assays was then tested (FIG. 10), kinetic proliferation assays (IncuCyte Zoom; Essen Bioscience) using cell lines treated with a single concentration of compound (100 nM-500 nM), and end-point dose-response assays (CellTiter Glo or CyQuant).
This assay was expanded to include an additional 8 representative bladder cancer cell lines, including cell lines with PPARG amplification, RXRA p.S427F mutation, activated gene signature, and control cell lines with low level expression of PPARG and target genes. […] Representative data for the UM-UC-9 cell line are shown in FIG. 6B, and is tabulated for the tested bladder cancer cell lines in Table 1. […] This significant (P<0.01) preferential sensitivity to PPARG inverse-agonists, but not antagonists, is maintained across all of the PPARG-activated cell lines in the panel, including the RXRA p.S427F cell line, HT-1197 (41), the PPARG-amplified cell lines, 5637 and UM-UC-9, and the PPARG activation gene signature cell lines Cal29, UM-UC-1, and RT112/84 (FIG. 12). […] Similar results were obtained with these cell lines in parallel studies using clonogenic assays to quantify colony-forming ability (FIG. 10).
as §1

| Structure (SMILES) | effect in coactivator assay [1] | effect on unstimulated reporter (PPARG) | binding to PPARG LBD, competition with fluorescent ligand [2] | sensitivity of cell lines [3] | hierarchical clustering of gene expression signatures [4] | effect on cell proliferation compared with DMSO control (UM-UC-9 cells) | sensitivity of cell lines [5] |
| --- | --- | --- | --- | --- | --- | --- | --- |
| CC(C)(c1ccc(OCC2CO2)cc1)c1ccc(OCC2CO2)cc1 (centres unmarked) [BADGE, Bisphenol A diglycidyl ether] | minimal effect | minimal detectable effect | weak activity |  |  |  |  |
| CCC(=O)NC[C@H](Cc1ccc(OCCc2nc(-c3ccccc3)oc2C)cc1)N/C(C)=C\C(=O)c1ccc(C(F)(F)F)cc1 [GW6471] |  | modest inhibitory effect |  |  |  |  |  |
| COP(=O)(OC)OC(c1ccc(Cl)cc1)P(=O)(OC)OC (centres unmarked) [SR202, Mifobate] | minimal effect | minimal detectable effect | weak activity |  |  |  |  |
| Cc1c(C)n(Cc2ccc(-c3ccccc3C(=O)O)cc2)c2ccc(C(=O)N[C@@H](C)c3ccc(C(C)(C)C)cc3)cc12 [SR2595] |  |  |  | not sensitive | cluster with vehicle-treated controls | no significant effects | not sensitive |
